Consider four compounds from ChEMBL document CHEMBL5244233 (Eur J Med Chem, 2020).

For orientation: Ki means a dissociation constant, usually derived from enzyme kinetics or from competition with a known ligand. Broadly, the IC50 is the midpoint of a concentration-inhibition curve. Broadly, the MIC is the lowest concentration that inhibits growth of the organism. The Kb is the affinity of an antagonist, worked out from how it opposes an agonist.

The target in test [1] is Cannabinoid receptor 1 (Rattus norvegicus, UniProt P20272). Put plainly: Displacement of [3H]HU243 from rat brain membrane CB1 receptor assessed as inhibition constant incubated for 90 mins. It is filed as cell membranes. (Displacement assays read how much labelled ligand stays bound in the presence of the test substance.)
Test [2] has as its system 4T1. Put plainly: Cytotoxicity against mouse 4T1 cells assessed as inhibition of cell proliferation by MTT assay. It is filed as functional, cell-based.
The subject of test [3] is Caco-2. Put plainly: Cytotoxicity against human Caco-2 cells assessed as reduction of cell viability incubated for 24 hrs by MTT assay. The class given is functional, cell-based. The note with it: Caco-2, 24 h. A general note: Tetrazolium assays rely on reduction of a dye to a coloured formazan, in cell work by metabolically active cells.
Test [4] is described as follows: Induction of apoptosis in gamma-irradiation induced human U87 cells by PI staining based flow cytometric analysis. It is filed as functional, U-87MG ATCC. The note with it: U-87 MG, light or radiation study, read-out: MEC.
The subject of test [5] is DU-145. In words: Cytotoxicity against human DU-145 cells assessed as inhibition of cell growth incubated for 72 hrs by MTT assay. The class given is functional, cell-based. The following applies: DU-145, 72 h.
Test [6] can be described thus: Reduction of triglyceride level in mouse 3T3-L1 cells incubated for 3 days by AdipoRed staining based fluorescence analysis. It is filed as functional. The following applies: 3T3-L1, 72 h, time 3 day, read-out: MEC.
Test [7] has as its system Rattus norvegicus. Put plainly: Protection against LiCl-induced nausea in ip dosed rat assessed as reduction in conditioned gaping. The class given is functional.
Test [8] has as its system MDA-MB-231. Put plainly: Inhibition of cell migration in human MDA-MB-231 cells measured upto 48 hrs by transwell chamber assay. It is filed as functional.
For test [9], the species on record is Rattus norvegicus. In words: Protection against LiCl-induced nausea in rat assessed as reduction in conditioned gaping. The class given is functional. The following applies: read-out: MED.
In test [10] the target is Cannabinoid receptor 1 (Mus musculus) (UniProt P47746). In words: Antagonist activity at mouse brain membrane CB1 receptor assessed as stimulation of [35S]-GTPgammaS binding by measuring apparent dissociation constant incubated for 60 mins by liquid scintillation counting method. The class given is cell membranes. The note with it: filed as antagonist. A general note: Binding of GTPγS marks nucleotide exchange on a G protein.
Cannabinoid receptor 1 (Mus musculus), sequence (P47746 whole entry): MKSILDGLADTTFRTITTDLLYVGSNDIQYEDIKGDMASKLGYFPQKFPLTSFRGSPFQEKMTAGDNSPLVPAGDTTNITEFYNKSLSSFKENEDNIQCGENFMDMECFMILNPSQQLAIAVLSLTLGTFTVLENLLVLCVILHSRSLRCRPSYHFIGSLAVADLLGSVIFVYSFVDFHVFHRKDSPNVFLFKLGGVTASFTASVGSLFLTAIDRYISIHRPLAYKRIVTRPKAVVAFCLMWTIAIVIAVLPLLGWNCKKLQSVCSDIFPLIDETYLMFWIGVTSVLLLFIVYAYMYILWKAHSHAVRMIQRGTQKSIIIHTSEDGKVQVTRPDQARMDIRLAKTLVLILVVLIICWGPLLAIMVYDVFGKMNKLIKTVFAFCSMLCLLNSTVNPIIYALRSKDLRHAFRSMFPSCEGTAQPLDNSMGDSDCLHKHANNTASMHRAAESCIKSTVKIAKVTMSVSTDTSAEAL

Cannabinoid receptor 1, sequence (P20272 whole entry): as the sequence (P47746 whole entry) above, with D95E counted along it

Consider `C=C(C)[C@@H]1CCC(C)C[C@H]1c1c(O)cc(CCCCC)cc1O` (stereo partly specified), for which the inhibitory constant (Ki) in test [1] amounted to 145 nM.

On to `C=C(C)[C@@H]1CCC(C)=C[C@H]1c1c(O)cc(CCCCC)cc1O` [CANNABIDIOL], for which the IC50 in [2] came to 1800 nM; in [3], 3730 nM; in test [5], 5400 nM. Besides, the minimal effective concentration in [4] and in test [6] was no more than 5 µM in each case.

In the case of `C=C(C)[C@@H]1CCC(C)=C[C@H]1c1c(O)cc(CCC)cc1O` [CANNABIDIVARIN], in test [7], the MED was found to be 200000 µg/kg. Moreover, in test [3], the IC50 is 10100 nM.

Consider `C=C(C)[C@@H]1CCC(C)=C[C@H]1c1c(O)cc(CCCCC)c(C(=O)O)c1O` [CANNABIDIOLIC ACID], for which the MIC in [8] is no more than 5 µM. The minimal effective dose in [9] was 2.5 µg/kg. Moreover, the Kb in test [10] turned out to be 1800 nM.
